From patent US11339171B2, “MDM2 inhibitors” (Gan & Lee Pharmaceuticals, priority 2017, dated 2022)
“And” between values parts separate entries of the source, which are not always exact repeats. Equal values may be shown once. Read-outs that look alike come from different tables or passages of the source.

What was measured:
[1] = test system: human osteosarcoma cell line SJSA-1; experiment: Inhibition of proliferation of human osteosarcoma cell line SJSA-1 (DAPI staining, In Cell Analyzer); conditions: Homo sapiens, SJSA-1, 72 h, read-out: IC50 (nM), inhibitory activity on proliferation of human osteosarcoma cell line SJSA-1, SJSA-1, incubated 72 h
[2] = target: T1, MDM2 (Homo sapiens, UniProt Q00987); experiment: Inhibition test of MDM2-P53 (GST-MDM2, Biotin-P53, Anti-GST-Tb, SA-XL665); format: binding
T1 construct: made in house
T1 sequence (Q00987 whole entry): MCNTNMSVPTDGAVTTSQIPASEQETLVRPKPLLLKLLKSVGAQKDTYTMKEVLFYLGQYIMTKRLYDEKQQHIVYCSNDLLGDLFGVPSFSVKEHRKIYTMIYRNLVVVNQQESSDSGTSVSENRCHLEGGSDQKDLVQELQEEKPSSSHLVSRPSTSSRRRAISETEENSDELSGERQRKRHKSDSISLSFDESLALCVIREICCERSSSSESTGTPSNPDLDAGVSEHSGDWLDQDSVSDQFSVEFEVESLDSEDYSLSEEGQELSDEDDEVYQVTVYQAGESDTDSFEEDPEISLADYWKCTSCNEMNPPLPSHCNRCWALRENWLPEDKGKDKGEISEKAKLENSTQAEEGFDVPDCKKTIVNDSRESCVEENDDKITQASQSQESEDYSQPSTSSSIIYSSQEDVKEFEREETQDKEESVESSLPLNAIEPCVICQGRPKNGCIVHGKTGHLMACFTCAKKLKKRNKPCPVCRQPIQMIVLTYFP
Procedure, shortened: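 Compounds, serially diluted 5-fold (twelve concentrations), were shaken for 90 min at 25° C with a mix of GST-MDM2 (4 nM final), Biotin-P53, anti-GST-Tb and SA-XL665. Buffer: 1×PBS, 0.1% BSA, 5 mM DTT, 1 mM AEBSF; signal read on a microplate reader.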

[3] = Pharmacokinetics in ICR mice after intravenous and intragastric administration; format: in vivo; conditions: for MRT last: read-out: MRT(0-t); for MRT inf: read-out: MRT(0-∞); for Vd: read-out: Vz
Procedure, shortened: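 Plasma concentrations by LC-MS/MS (range 1 to 2000 ng/ml) following single intravenous (2 mg/kg) or oral gavage (5 mg/kg) dosing of fasted male ICR mice, three per group. Vehicle 5% DMSO + 40% PEG400 + 55% (10% HP-β-CD in saline); standard PK parameters including bioavailability calculated.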

[4] = ICR mice, IV 2 mg/kg, individual animal, 2 mg/kg
[5] = ICR mice, PO 5 mg/kg, individual animal, 5 mg/kg
[6] = male, ICR, mouse, plasma, iv, 2 mg/kg, ICR mice, IV 2 mg/kg, individual animal
[7] = male, ICR, mouse, plasma, iv, 2 mg/kg, ICR mice, IV 2 mg/kg, individual animal, read-out: AUC(0-t)
[8] = male, ICR, mouse, plasma, iv, 2 mg/kg, ICR mice, IV 2 mg/kg, individual animal, read-out: Cmax
[9] = male, ICR, mouse, plasma, iv, 2 mg/kg, ICR mice, IV 2 mg/kg, individual animal, read-out: Tmax
[10] = male, ICR, mouse, plasma, iv, 2 mg/kg, ICR mice, IV 2 mg/kg, individual animal, read-out: t1/2 (converted)
[11] = male, ICR, mouse, plasma, iv, 2 mg/kg, ICR mice, IV 2 mg/kg, mean of 3 animals
[12] = male, ICR, mouse, plasma, iv, 2 mg/kg, ICR mice, IV 2 mg/kg, mean of 3 animals, read-out: AUC(0-t)
[13] = male, ICR, mouse, plasma, iv, 2 mg/kg, ICR mice, IV 2 mg/kg, mean of 3 animals, read-out: Cmax
[14] = male, ICR, mouse, plasma, iv, 2 mg/kg, ICR mice, IV 2 mg/kg, mean of 3 animals, read-out: Tmax
[15] = male, ICR, mouse, plasma, iv, 2 mg/kg, ICR mice, IV 2 mg/kg, mean of 3 animals, read-out: t1/2 (converted)
[16] = male, ICR, mouse, plasma, po, 5 mg/kg, ICR mice, PO 5 mg/kg, individual animal
[17] = male, ICR, mouse, plasma, po, 5 mg/kg, ICR mice, PO 5 mg/kg, individual animal, read-out: Cmax
[18] = male, ICR, mouse, plasma, po, 5 mg/kg, ICR mice, PO 5 mg/kg, individual animal, read-out: Tmax
[19] = male, ICR, mouse, plasma, po, 5 mg/kg, ICR mice, PO 5 mg/kg, individual animal, read-out: t1/2 (converted)
[20] = male, ICR, mouse, plasma, po, 5 mg/kg, ICR mice, PO 5 mg/kg, mean of 3 animals
[21] = male, ICR, mouse, plasma, po, 5 mg/kg, ICR mice, PO 5 mg/kg, mean of 3 animals, read-out: AUC(0-t)
[22] = male, ICR, mouse, plasma, po, 5 mg/kg, ICR mice, PO 5 mg/kg, mean of 3 animals, read-out: Cmax
[23] = male, ICR, mouse, plasma, po, 5 mg/kg, ICR mice, PO 5 mg/kg, mean of 3 animals, read-out: Tmax
[24] = male, ICR, mouse, plasma, po, 5 mg/kg, ICR mice, PO 5 mg/kg, mean of 3 animals, read-out: t1/2 (converted)
[25] = male, ICR, mouse, plasma, po, 5 mg/kg, oral intragastric administration 5 mg/kg, read-out: AUC0-t
[26] = male, ICR, mouse, plasma, po, 5 mg/kg, oral intragastric administration 5 mg/kg, read-out: half-life (converted)
[27] = male, mouse, plasma, ICR mice, PO 5 mg/kg vs IV 2 mg/kg, from mean values, read-out: F* (bioavailability)

Structure (SMILES): COc1cc(OC)c(-c2nc3c(n2C(C)C)[C@@]2(C(=O)Nc4cc(Cl)ccc42)N(c2cc(Cl)cnc2C)C3=O)cn1 [Example S-131, (S)-6-chloro-5′-(5-chloro-2-methylpyridin-3-yl)-2′-(4,6-dimethoxypyridin-3-yl)-3′-isopropyl-3′H-spiro[dihydroindole-3,4′-pyrrolo[3,4-d]imidazole]-2,6′(5′H)-dione]
- IC50 [1]: 46.3 nM
- IC50 [2]: 0.00117 µM
- AUC(0-t) [3, 4]: 1579.23 ng·h/mL and 1776.79 ng·h/mL
- AUC(0-∞) [3, 4]: 1594.10 ng·h/mL and 1788.59 ng·h/mL
- CL [3, 4]: 20.91 mL/min/kg and 18.64 mL/min/kg
- Cmax [3, 4]: 2021.33 ng/mL and 1997.01 ng/mL
- MRT(0-t) [3, 4]: 0.90 h and 0.94 h
- MRT(0-∞) [3, 4]: 0.96 h and 0.98 h
- Vz [3, 4]: 1.78 L/kg and 1.45 L/kg
- t1/2 [3, 4]: 0.98 h and 0.90 h
- AUC(0-t) [3, 5]: 5902.77 ng·h/mL and 6839.45 ng·h/mL
- AUC(0-∞) [3, 5]: 6003.28 ng·h/mL and 7052.50 ng·h/mL
- Cmax [3, 5]: 1853.01 ng/mL and 1794.96 ng/mL
- MRT(0-t) [3, 5]: 2.27 h and 2.45 h
- MRT(0-∞) [3, 5]: 2.40 h and 2.68 h
- t1/2 [3, 5]: 1.28 h and 1.47 h
- AUC(0-inf) [3, 6]: 1260 ng·h/mL
- clearance [3, 6]: 26.4 mL/min/kg
- AUC(0-t) [3, 7]: 1260 ng·h/mL
- Cmax [3, 8]: 1780 ng/mL
- MRT last [3, 6]: 0.71 h
- MRT inf [3, 6]: 0.73 h
- Tmax [3, 9]: 0.08 h
- Vd [3, 6]: 1.73 L/kg
- half-life [3, 10]: 0.76 h
- AUC(0-inf) [3, 11]: 1550 ng·h/mL
- clearance [3, 11]: 22 mL/min/kg
- AUC(0-t) [3, 12]: 1540 ng·h/mL
- Cmax [3, 13]: 1930 ng/mL
- MRT last [3, 11]: 0.85 h
- MRT inf [3, 11]: 0.89 h
- Tmax [3, 14]: 0.083 h
- Vd [3, 11]: 1.65 L/kg
- half-life [3, 15]: 0.88 h
- AUC(0-inf) [3, 16]: 3770 ng·h/mL
- AUC(0-t) ([3]; male, ICR, mouse, plasma, po, 5 mg/kg, ICR mice, PO 5 mg/kg, individual animal, read-out: AUC(0-t)): 3740 ng·h/mL
- Cmax [3, 17]: 1440 ng/mL
- MRT last [3, 16]: 1.9 h
- MRT inf [3, 16]: 1.95 h
- Tmax [3, 18]: 1 h
- half-life [3, 19]: 1.03 h
- AUC(0-inf) [3, 20]: 5610 ng·h/mL
- AUC(0-t) [3, 21]: 5500 ng·h/mL
- Cmax [3, 22]: 1700 ng/mL
- MRT last [3, 20]: 2.21 h
- MRT inf [3, 20]: 2.34 h
- Tmax [3, 23]: 1 h
- half-life [3, 24]: 1.26 h
- AUC(0-t) [3, 25]: 5500 ng·h/mL
- half-life [3, 26]: 1.26 h
- bioavailability [3, 27]: 143%

Structure (SMILES): CCOc1cc(OC)c(-c2nc3c(n2C(C)C)[C@@]2(C(=O)Nc4cc(Cl)ccc42)N(c2cc(Cl)ccc2F)C3=O)cn1 [Example S-98, (S)-6-chloro-5′-(5-chloro-2-fluorophenyl)-2′-(6-ethoxy-4-methoxypyridin-3-yl)-3′-isopropyl-3′H-spiro[dihydroindole-3,4′-pyrrolo[3,4-d]imidazole]-2,6′(5′H)-dione]
- IC50 [1]: 56.1 nM
- IC50 [2]: 0.00127 µM
- AUC(0-t) [3, 4]: 8869.53 ng·h/mL and 11177.15 ng·h/mL
- AUC(0-∞) [3, 4]: 9108.92 ng·h/mL and 12596.27 ng·h/mL
- CL [3, 4]: 3.66 mL/min/kg and 2.65 mL/min/kg
- Cmax [3, 4]: 3789.06 ng/mL and 3405.07 ng/mL
- MRT(0-t) [3, 4]: 1.43 h and 1.82 h
- MRT(0-∞) [3, 4]: 1.60 h and 2.60 h
- Vz [3, 4]: 0.37 L/kg and 0.44 L/kg
- t1/2 [3, 4]: 1.17 h and 1.93 h
- AUC(0-t) [3, 5]: 37288.31 ng·h/mL and 18064.52 ng·h/mL and 23330.62 ng·h/mL
- AUC(0-∞) [3, 5]: 19691.36 ng·h/mL and 23352.18 ng·h/mL
- Cmax [3, 5]: 3420.72 ng/mL and 2943.86 ng/mL
- MRT(0-t) [3, 5]: 3.17 h and 4.72 h
- MRT(0-∞) [3, 5]: 3.82 h and 4.74 h
- Tmax [3, 5]: 2.00 h
- t1/2 [3, 5]: 2.12 h and 2.30 h
- AUC(0-inf) [3, 6]: 10500 ng·h/mL
- clearance [3, 6]: 3.16 mL/min/kg
- AUC(0-t) [3, 7]: 10000 ng·h/mL
- Cmax [3, 8]: 3670 ng/mL
- MRT last [3, 6]: 1.55 h
- MRT inf [3, 6]: 1.86 h
- Tmax [3, 9]: 0.08 h
- Vd [3, 6]: 0.39 L/kg
- half-life [3, 10]: 1.43 h
- AUC(0-inf) [3, 11]: 10700 ng·h/mL
- clearance [3, 11]: 3.16 mL/min/kg
- AUC(0-t) [3, 12]: 10000 ng·h/mL
- Cmax [3, 13]: 3620 ng/mL
- MRT last [3, 11]: 1.6 h
- MRT inf [3, 11]: 2.02 h
- Tmax [3, 14]: 0.083 h
- Vd [3, 11]: 0.4 L/kg
- half-life [3, 15]: 1.51 h
- AUC(0-inf) [3, 16]: 37300 ng·h/mL
- Cmax [3, 17]: 3840 ng/mL
- MRT last [3, 16]: 5.36 h
- MRT inf [3, 16]: 5.38 h
- Tmax [3, 18]: 4 h
- half-life [3, 19]: 2.31 h
- AUC(0-inf) [3, 20]: 26800 ng·h/mL
- AUC(0-t) [3, 21]: 26200 ng·h/mL
- Cmax [3, 22]: 3400 ng/mL
- MRT last [3, 20]: 4.41 h
- MRT inf [3, 20]: 4.65 h
- Tmax [3, 23]: 2.67 h
- half-life [3, 24]: 2.24 h
- AUC(0-t) [3, 25]: 26200 ng·h/mL
- half-life [3, 26]: 2.24 h
- bioavailability ([3]; male, ICR, mouse, plasma, oral intragastric administration 5 mg/kg, read-out: bioavailability): 105%
- bioavailability [3, 27]: 105%
